{"source": "patent US20040062807A1", "about": "“Biocide compositions and a method for their production” (priority 2001, published 2004)", "key": {"unidentified mold": {"tested_on": "unidentified mold", "test": "Growth of mold on petri dishes with fungicide composition in growth media (diameter)", "format": "cell-based", "settings": "25° C., 3-5 days", "experimental": "The fungus was allowed to grow at 25° C. for 3-5 days. At the end of this period, the diameter of the fungus on the plate was measured. All results were duplicated to assure accuracy."}, "fungus spores": {"tested_on": "fungus spores", "test": "Fungus spore germination in growth media with fungicide composition (colony count)", "format": "cell-based, unidentified mold", "settings": "3-5 days incubation", "experimental": "The fungus was allowed to grow at 25° C. for 3-5 days. At the end of this period, the diameter of the fungus on the plate was measured. All results were duplicated to assure accuracy. In a second series of experiments, the growth of fungus spores was measured under the same conditions as those described above. The number of colonies were measured, again after 3-5 days of incubation."}, "[1]": {"settings": "15% composition in growth media"}, "[2]": {"settings": "25% composition in growth media"}}}
{"smiles": "O=C([O-])[O-].[Ca+2]", "note": "[Calcium carbonate]", "values": [{"measurement": "Growth of Fungus (CFU diameter)", "setting": "unidentified mold; 5% composition in growth media", "value": 9, "unit": "cm"}, {"measurement": "Growth of Fungus (CFU diameter)", "setting": "unidentified mold; [1]", "value": 9, "unit": "cm"}, {"measurement": "Growth of Fungus (CFU diameter)", "setting": "unidentified mold; [2]", "value": 9, "unit": "cm"}, {"measurement": "Fungus Germination (CFU per ml)", "setting": "fungus spores; 5% composition in growth media", "value": 100, "unit": "CFU per ml"}, {"measurement": "Fungus Germination (CFU per ml)", "setting": "fungus spores; [1]", "value": 150, "unit": "CFU per ml"}, {"measurement": "Fungus Germination (CFU per ml)", "setting": "fungus spores; [2]", "value": 110, "unit": "CFU per ml"}]}
